Source: PMC7382816 (BMC Pharmacology & Toxicology, 2020)
Where two headings read alike, the source gives them in different places.

Assay: Single-dose pharmacokinetics in healthy volunteers under fasting and fed (high-fat breakfast) conditions, plasma concentrations by HPLC-MS, non-compartmental analysis
Type: in vivo, human
Set-up: Ke: unit not given here
From the text: The bioequivalence clinical trials were phase I, randomized, open-label, crossover, single-centre, with two periods separated by a 7-day washout stage. Subjects were randomised to one of the two treatment sequences, RT or TR where R was the reference formulation and T was the test formulation. Each of the clinical trial was crossover for evaluation of a test formulation compared to a reference formulation either under fed or fasting conditions. […] The treatments were allocated in a balanced manner on every inclusion day (blocks of 4 subjects). Our study adheres to CONSORT guidelines. […] Sample processing, genotyping for CYP2C19 and drug quantification were performed according to Román et al. […] Pharmacokinetic parameters were estimated from the plasma concentration–time data by non-compartmental analysis (WinNonlin Professional, version 2.0., Pharsight Corporation, USA) as reported by Román et al. […] WinNonLin Professional software version 2.0 was used for the statistical analysis. Pharmacokinetic parameters were log-transformed, and AUC and Cmax were adjusted for dose and weight. The values of pharmacokinetic parameters were expressed as mean ± standard deviation.

[1] = Fast, men, single oral dose, mean ± SD
[2] = both sexes, human, plasma, oral, only CYP2C19*1/*1 subjects, Fast, men and women, mean ± SD
[3] = both sexes, human, plasma, oral, only CYP2C19*1/*1 subjects, Fed, men and women, mean ± SD
[4] = both sexes, human, plasma, po, Fast, all subjects, single oral dose, mean ± SD
[5] = both sexes, human, plasma, po, Fed (high-fat breakfast), all subjects, single oral dose, mean ± SD
[6] = female, human, plasma, oral, only CYP2C19*1/*1 subjects, Fast, women, mean ± SD
[7] = female, human, plasma, oral, only CYP2C19*1/*1 subjects, Fed, women, mean ± SD
[8] = female, human, plasma, po, Fast, women, single oral dose, mean ± SD
[9] = female, human, plasma, po, Fed, women, single oral dose, mean ± SD
[10] = male, human, plasma, oral, only CYP2C19*1/*1 subjects, Fast, men, mean ± SD
[11] = male, human, plasma, oral, only CYP2C19*1/*1 subjects, Fed, men, mean ± SD
[12] = male, human, plasma, po, Fast, men, single oral dose, mean ± SD
[13] = male, human, plasma, po, Fed, men, single oral dose, mean ± SD
[14] = only CYP2C19*1/*1 subjects, Fast, men, mean ± SD
[15] = only CYP2C19*1/*1 subjects, Fast, women, mean ± SD
[16] = only CYP2C19*1/*1 subjects, Fed, men and women, mean ± SD
[17] = only CYP2C19*1/*1 subjects, Fed, men, mean ± SD

Q: For `COc1ccc2[nH]c([S+]([O-])Cc3ncc(C)c(OC)c3C)nc2c1` (stereo not drawn) [Omeprazole, omeprazole], which Ke (Fast, all subjects, single oral dose, mean ± SD) is on record?
A: The Ke was 0.76 ± 0.29.

Q: What about the Cmax [1] of the same compound?
A: Its Cmax is 858.8 ± 432.6 ng/mL.

Q: And the Ke [1]?
A: Its Ke is 0.70 ± 0.29.

Q: And the Ke (Fast, women, single oral dose, mean ± SD)?
A: Its Ke is 0.82 ± 0.29.

Q: What about the Ke (Fed (high-fat breakfast), all subjects, single oral dose, mean ± SD) of the same compound?
A: The Ke was 0.67 ± 0.32.

Q: What about the Ke (Fed, men, single oral dose, mean ± SD) of the same compound?
A: The Ke was 0.69 ± 0.35.

Q: What about the Ke (Fed, women, single oral dose, mean ± SD) of the same compound?
A: The Ke was 0.65 ± 0.30.

Q: And the AUC(0-inf) [2]?
A: The AUC(0-inf) was 1710 ± 1300 ng·h/mL.

Q: What about the CL/F [2] of the same compound?
A: The CL/F was 9.5 mL/min/kg.

Q: And the Vd/F [2]?
A: Its Vd/F is 0.69 ± 0.38 L/kg.

Q: And the half-life [2]?
A: Its half-life is 1 ± 0.4 h.

Q: And the Cmax (both sexes, human, plasma, oral, only CYP2C19*1/*1 subjects, Fast, men and women, mean ± SD, read-out: Cmax)?
A: The Cmax was 860 ± 395 ng/mL.

Q: What about the Tmax (both sexes, human, plasma, oral, only CYP2C19*1/*1 subjects, Fast, men and women, mean ± SD, read-out: Tmax) of the same compound?
A: Its Tmax is 1.8 ± 0.6 h.

Q: What about the AUC(0-inf) [3] of the same compound?
A: The AUC(0-inf) was 1520 ± 1290 ng·h/mL.

Q: And the CL/F [3]?
A: The CL/F was 10.3 mL/min/kg.

Q: What about the Vd/F [3] of the same compound?
A: The Vd/F was 0.77 ± 0.43 L/kg.

Q: What about the half-life [3] of the same compound?
A: The half-life was 1 ± 0.4 h.

Q: What about the Cmax (both sexes, human, plasma, oral, only CYP2C19*1/*1 subjects, Fed, men and women, mean ± SD, read-out: Cmax) of the same compound?
A: The Cmax was 604 ± 363 ng/mL.

Q: What about the Tmax (both sexes, human, plasma, oral, only CYP2C19*1/*1 subjects, Fed, men and women, mean ± SD, read-out: Tmax) of the same compound?
A: The Tmax was 4.9 h.

Q: And the Tmax (both sexes, human, plasma, oral, under fasting conditions, range among subjects, read-out: Tmax range)?
A: Its Tmax is 1 to 3.5 h.

Q: And the Tmax (both sexes, human, plasma, oral, under fed conditions, range among subjects, read-out: Tmax range)?
A: The Tmax was 1 to 17 h.

Q: What about the AUC(0-inf) [4] of the same compound?
A: Its AUC(0-inf) is 2190 ± 2010 ng·h/mL.

Q: And the CL/F [4]?
A: Its CL/F is 8.83 mL/min/kg.

Q: And the Vd/F [4]?
A: The Vd/F was 0.64 ± 0.34 L/kg.

Q: And the Cmax (both sexes, human, plasma, po, Fast, all subjects, single oral dose, mean ± SD, read-out: Cmax)?
A: The Cmax was 931 ± 435 ng/mL.

Q: And the Tmax (both sexes, human, plasma, po, Fast, all subjects, single oral dose, mean ± SD, read-out: Tmax)?
A: The Tmax was 2 ± 0.7 h.

Q: What about the AUC(0-inf) [5] of the same compound?
A: The AUC(0-inf) was 1930 ± 1880 ng·h/mL.

Q: And the CL/F [5]?
A: The CL/F was 10.7 mL/min/kg.

Q: And the Vd/F [5]?
A: The Vd/F was 1.02 ± 1.07 L/kg.

Q: And the Cmax (both sexes, human, plasma, po, Fed (high-fat breakfast), all subjects, single oral dose, mean ± SD, read-out: Cmax)?
A: Its Cmax is 683 ± 394 ng/mL.

Q: And the Tmax (both sexes, human, plasma, po, Fed (high-fat breakfast), all subjects, single oral dose, mean ± SD, read-out: Tmax)?
A: The Tmax was 4.9 ± 1.1 h.

Q: And the “AUC lower under fed conditions” value (fed vs fasting, all subjects)?
A: Its value is 12%.

Q: What about the “Cmax lower under fed conditions” value (fed vs fasting, all subjects) of the same compound?
A: The value was 27%.

Q: And the “Delay of mean Tmax (absorption) by food” value (fed vs fasting, all subjects)?
A: Its value is “about 3 h”.

Q: What about the “half-life higher under fed conditions” value (fed vs fasting, all subjects) of the same compound?
A: The value was 15%.

Q: What about the “Delay of Tmax by food” value (fed vs fasting, only subjects with CYP2C19*1/*1) of the same compound?
A: The value was 3 h.

Q: And the AUC(0-inf) [6]?
A: The AUC(0-inf) was 1980 ± 1220 ng·h/mL.

Q: What about the CL/F [6] of the same compound?
A: Its CL/F is 8.83 mL/min/kg.

Q: What about the Vd/F [6] of the same compound?
A: Its Vd/F is 0.69 ± 0.46 L/kg.

Q: And the half-life [6]?
A: Its half-life is 1 ± 0.3 h.

Q: And the AUC(0-inf) [7]?
A: Its AUC(0-inf) is 1710 ± 1250 ng·h/mL.

Q: What about the CL/F [7] of the same compound?
A: Its CL/F is 9.5 mL/min/kg.

Q: What about the Vd/F [7] of the same compound?
A: The Vd/F was 0.84 ± 0.54 L/kg.

Q: What about the Cmax (female, human, plasma, oral, only CYP2C19*1/*1 subjects, Fed, women, mean ± SD, read-out: Cmax) of the same compound?
A: Its Cmax is 640 ± 275 ng/mL.

Q: What about the Tmax (female, human, plasma, oral, only CYP2C19*1/*1 subjects, Fed, women, mean ± SD, read-out: Tmax) of the same compound?
A: Its Tmax is 5.4 ± 0.4 h.

Q: And the AUC(0-inf) [8]?
A: The AUC(0-inf) was 2020 ± 1500 ng·h/mL.

Q: And the CL/F [8]?
A: Its CL/F is 9.33 mL/min/kg.

Q: And the Vd/F [8]?
A: Its Vd/F is 0.63 ± 0.31 L/kg.

Q: And the half-life [8]?
A: Its half-life is 1 ± 0.4 h.

Q: And the Cmax (female, human, plasma, po, Fast, women, single oral dose, mean ± SD, read-out: Cmax)?
A: The Cmax was 999 ± 438 ng/mL.

Q: What about the Tmax (female, human, plasma, po, Fast, women, single oral dose, mean ± SD, read-out: Tmax) of the same compound?
A: The Tmax was 1.9 ± 0.6 h.

Q: And the AUC(0-inf) [9]?
A: The AUC(0-inf) was 1720 ± 1400 ng·h/mL.

Q: And the CL/F [9]?
A: Its CL/F is 12.2 mL/min/kg.

Q: And the Vd/F [9]?
A: The Vd/F was 1.3 ± 1.38 L/kg.

Q: And the Cmax (female, human, plasma, po, Fed, women, single oral dose, mean ± SD, read-out: Cmax)?
A: The Cmax was 640 ± 640 ng/mL.

Q: What about the Tmax (female, human, plasma, po, Fed, women, single oral dose, mean ± SD, read-out: Tmax) of the same compound?
A: The Tmax was 5.4 ± 1 h.

Q: And the AUC(0-inf) [10]?
A: Its AUC(0-inf) is 1470 ± 1400 ng·h/mL.

Q: And the CL/F [10]?
A: The CL/F was 10.3 mL/min/kg.

Q: And the Vd/F [10]?
A: Its Vd/F is 0.68 ± 0.46 L/kg.

Q: What about the Cmax (male, human, plasma, oral, only CYP2C19*1/*1 subjects, Fast, men, mean ± SD, read-out: Cmax) of the same compound?
A: Its Cmax is 654 ± 306 ng/mL.

Q: And the AUC(0-inf) [11]?
A: Its AUC(0-inf) is 1410 ± 1160 ng·h/mL.

Q: What about the CL/F [11] of the same compound?
A: The CL/F was 10.5 mL/min/kg.

Q: What about the Vd/F [11] of the same compound?
A: Its Vd/F is 0.73 ± 0.38 L/kg.

Q: And the half-life [11]?
A: Its half-life is 1 ± 0.4 h.

Q: What about the Tmax (male, human, plasma, oral, only CYP2C19*1/*1 subjects, Fed, men, mean ± SD, read-out: Tmax) of the same compound?
A: The Tmax was 4.3 ± 1 h.

Q: What about the AUC(0-inf) [12] of the same compound?
A: Its AUC(0-inf) is 2380 ± 2480 ng·h/mL.

Q: What about the CL/F [12] of the same compound?
A: The CL/F was 8.33 mL/min/kg.

Q: What about the Vd/F [12] of the same compound?
A: The Vd/F was 0.65 ± 0.38 L/kg.

Q: What about the Tmax (male, human, plasma, po, Fast, men, single oral dose, mean ± SD, read-out: Tmax) of the same compound?
A: The Tmax was 2.1 ± 0.7 h.

Q: And the AUC(0-inf) [13]?
A: The AUC(0-inf) was 2140 ± 2280 ng·h/mL.

Q: What about the CL/F [13] of the same compound?
A: Its CL/F is 9.5 mL/min/kg.

Q: What about the Vd/F [13] of the same compound?
A: The Vd/F was 0.75 ± 0.52 L/kg.

Q: What about the Cmax (male, human, plasma, po, Fed, men, single oral dose, mean ± SD, read-out: Cmax) of the same compound?
A: The Cmax was 725 ± 448 ng/mL.

Q: And the Tmax (male, human, plasma, po, Fed, men, single oral dose, mean ± SD, read-out: Tmax)?
A: Its Tmax is 4.5 ± 0.9 h.

Q: And the Ke (only CYP2C19*1/*1 subjects, Fast, men and women, mean ± SD)?
A: The Ke was 0.81 ± 0.23.

Q: What about the Ke [14] of the same compound?
A: The Ke was 0.82 ± 0.25.

Q: And the Tmax [14]?
A: Its Tmax is 2.0 ± 0.7 h.

Q: What about the Cmax [15] of the same compound?
A: Its Cmax is 1094.3 ± 366.6 ng/mL.

Q: What about the Ke [15] of the same compound?
A: The Ke was 0.79 ± 0.23.

Q: What about the Ke [16] of the same compound?
A: The Ke was 0.80 ± 0.36.

Q: And the Tmax [16]?
A: The Tmax was 4.7 ± 1.0 h.

Q: And the Cmax [17]?
A: Its Cmax is 582.8 ± 419.1 ng/mL.

Q: What about the Ke [17] of the same compound?
A: Its Ke is 0.84 ± 0.39.

Q: What about the Ke (only CYP2C19*1/*1 subjects, Fed, women, mean ± SD) of the same compound?
A: Its Ke is 0.72 ± 0.32.
